{"source": "patent US7204982B2", "about": "“Compositions and methods for treatment and detection of multiple cancers” (The Regents of the University of California, priority 2002, dated 2007)", "origin": "cited, not measured here", "key": {"malignant gliomas": {"tested_on": "malignant gliomas", "settings": "high doses, orally administered; Couldwell et al. 1996"}, "[1]": {"tested_on": "human glioblastoma cell lines (U87, U373, and U138)", "settings": "cell lines lack detectable estrogen receptor expression"}}, "note": "Where a name gives a salt, the structure may show the parent alone."}
{"smiles": "CC/C(=C(\\c1ccccc1)c1ccc(OCCN(C)C)cc1)c1ccccc1", "note": "[tamoxifen, (Z)-2[p[(1,2-diphenyl-1-butenyl)phenoxyl]-N,N-dimethylamine citrate]", "values": [{"measurement": "clinical benefit", "setting": "malignant gliomas", "value": "of benefit in some patients with malignant gliomas"}, {"measurement": "cytotoxicity", "setting": "[1]", "value": "responsive to tamoxifen cytotoxicity"}]}
